From paper PMC4466200 (Bioorganic & Medicinal Chemistry Letters, 2015)

How the values were obtained:
HSV-2 = details: CD4+ T cells; McGuigan's ProTide technology employed; cited from earlier work
[1] = system: SARS-CoV (strain Frankfurt-1); assay type: cell-based
[2] = system: MERS-CoV (strain EMC/2012)
SARS-CoV or MERS-CoV = details: cited from earlier work
HIV-1 = details: CD4+ T cells; McGuigan's ProTide technology employed; cited from earlier work
other viruses = details: needed to inhibit other viruses; cited from earlier work
coronavirus = coronavirus replication in vitro; cited from earlier work
in vitro = details: human

Nc1nc2c(ncn2COCCO)c(=O)[nH]1 [Acyclovir, acyclovir]
concentration suppressing replication (HSV-2): 3 to 12 µmol/L
block of virus replication (in words) [1]: had no effect
block of virus replication (in words) [2]: had no effect
activity against SARS-CoV or MERS-CoV in vitro (in words) (SARS-CoV or MERS-CoV): none of these well known antiviral drugs exhibited any activity
concentration suppressing replication (HIV-1): 3 to 12 µmol/L

NC(=O)c1ncn([C@@H]2O[C@H](CO)[C@@H](O)[C@H]2O)n1 [Ribavirin, ribavirin]
inhibitory concentration (other viruses): 50 to 100 µg/mL
inhibitory concentration (coronavirus): 500 to 5000 µg/mL

Cc1cn([C@H]2C[C@H](N=[N+]=[N-])[C@@H](CO)O2)c(=O)[nH]c1=O [zidovudine]
activity against SARS-CoV or MERS-CoV in vitro (in words) (SARS-CoV or MERS-CoV): none of these well known antiviral drugs exhibited any activity

Nc1ccn([C@@H]2CS[C@H](CO)O2)c(=O)n1 [lamivudine]
activity against SARS-CoV or MERS-CoV in vitro (in words) (SARS-CoV or MERS-CoV): none of these well known antiviral drugs exhibited any activity

Nc1nc(O)c2ncn(COC(CO)CO)c2n1 [ganciclovir]
activity against SARS-CoV or MERS-CoV in vitro (in words) (SARS-CoV or MERS-CoV): none of these well known antiviral drugs exhibited any activity

COc1nc(N)ncc1-c1cn(COCCO)cn1 [compound 2]
EC50 [1]: No effect
block of virus replication (in words) [1]: but not SARS-CoV
block of virus replication (in words) [2]: can block the replication of MERS-CoV
selectivity ratio (in vitro): > 3
